Test results as given in patent publication US20250270202A1, “SUBSTITUTED 4-AMINOISOINDOLINE COMPOUND, PREPARATION METHOD THEREFOR, PHARMACEUTICAL COMPOSITION THEREOF, AND USE THEREOF” (SHANGHAI INSTITUTE OF MATERIA MEDICA, CHINESE ACADEMY OF …, priority 2022, published 2025).
Read-outs that look alike come from different tables or passages of the source.

Columns and labels:
Type in all cases: cell-based
MV-4-11 cells = test: Inhibition of MV-4-11 cell proliferation (MTS, 7 days)
Procedure: MV-4-11 cells were cultured in IMDM with 10% fetal bovine serum, collected, and diluted to the appropriate cell concentration for a 7-day treatment period. A 96-well plate was used, and 180 μL of cell suspension was added to each well, resulting in a cell count of 2,000 per well. For the control wells, 20 μL of DMSO at a final concentration of 0.2% was added. The compounds were diluted from a 10 mM stock solution in a five-fold gradient, and 20 μL was added to the compound wells (with a final DMSO concentration of 0.2%). The cells were incubated in a 37° C., 5% CO2 incubator for 7 days. After preparing the reaction solution using the MTS reagent kit (Promega, G5430), 20 μL was added to each well, and the cells were incubated in the incubator for 3-4 hours. The absorbance at 490 nm was measured using a microplate reader, with the absorbance at 690 nm as the background value. The final data was calculated as OD490-OD690. The inhibition rate of the compounds was calculated using the formula: […]
The IC50 values for proliferation inhibition were calculated using GraphPad Prism 5.0. The experiments were repeated three times, with three parallel experiments for each, and the mean and standard deviation were calculated.
The cell activity test results are shown in Table 3: A indicates IC50<1 μM, B indicates 1 µM≤IC50≤20 μM, and C indicates IC50>20 μM.

Mino cells = test: Inhibition of cell proliferation of Mino cells (MTS, 3 days)
Procedure: Mino cells were cultured with RPMI-1640 medium supplemented with 15% fetal bovine serum, and collected. The cell concentration was diluted according to a 3-day treatment period, and 90 μL of the cell suspension was added to each well of a 96-well plate, resulting in 8000 cells per well. For control wells, 10 μL of DMSO at a final concentration of 0.2% was added. The compounds were diluted in a 5-fold gradient from a 10 mM stock solution, and 10 μL of each compound solution was added to the experimental wells (with a final DMSO concentration of 0.2%). The cells were incubated in a 37° C., 5% CO2 incubator for 3 days. After preparing the reaction mixture using the MTS reagent kit (Promega, G5430), 20 μL was added to each well, and the cells were incubated for 3-4 hours at 37° C., 5% CO2.
The absorbance at 490 nm was read using a microplate reader, with the absorbance at 690 nm used as the background. The final raw data was calculated as OD490-OD690. The inhibition rate of the compounds was calculated using the formula: Inhibition rate=(OD DMSO−OD compound)/(OD DMSO−OD blank)×100%. The IC50 values for cell proliferation inhibition of the compounds were fitted using GraphPad Prism 5.0. The experiment was repeated three times, with the average and standard deviation calculated from three parallel experiments each time.

MM.1S cells = test: Effect of the compound on MM.1S cell proliferation (MTS, 7 days)
Procedure: MM.1S cells were cultured in 1640 medium supplemented with 10% fetal bovine serum, then collected and diluted to the desired cell concentration after 7 days of treatment. A total of 180 μL of cell suspension was added to each well in a 96-well cell plate, ensuring 20,000 cells per well. For the control group, 20 μL of 0.2% DMSO was added to each well. Compounds were diluted in a 5-step gradient from a 10 mM stock solution, and 20 μL of each dilution was added to the compound-containing wells (with a final DMSO concentration of 0.2%). The cells were incubated in a 37° C., 5% CO2 incubator for 7 days. Afterward, 20 μL of the MTS reagent (Promega, G5430) was added to each well, followed by incubation for 3-4 hours in a 37° C., 5% CO2 incubator. Absorbance at 490 nm was measured using a microplate reader, with 690 nm absorbance as the background. The final raw data was calculated as OD490-OD690. The compound inhibition rate was calculated using the formula: […]
The IC50 for the compound's proliferative inhibition was fitted using GraphPad Prism 5.0. The experiment was repeated three times, and the average and standard deviation were calculated using three parallel experiments per trial.

[1] = Homo sapiens, MV4-11, 168 h, 7 days, MTS, Table 3, read-out: MV-4-11 Cells Inhibition Activity IC50
[2] = Homo sapiens, MINO, 72 h, 3 days, MTS, Table 2, read-out: Mino Cells Inhibition Activity IC50
[3] = Homo sapiens, MM1.S, 168 h, 7 days, MTS, Table 1, read-out: MM.1S Cells Inhibition Activity IC50
[4] = Homo sapiens, MV4-11, Table 4, values in nM, read-out: Inhibitory Activity of Compounds on Cell Proliferation MV-4-11 IC50
[5] = Homo sapiens, MINO, Table 4, read-out: Inhibitory Activity of Compounds on Cell Proliferation Mino IC50
[6] = Homo sapiens, MM1.S, Table 4, read-out: Inhibitory Activity of Compounds on Cell Proliferation MM.1S IC50

SMILES | IC50 (MV-4-11 cells; [1]) | IC50 (Mino cells; [2]) | IC50 (MM.1S cells; [3]) | IC50 (MV-4-11 cells; 7 days, MTS, Table 3, read-out: MV-4-11 Cells Inhibition Activity IC50) | IC50 (Mino cells; 3 days, MTS, Table 2, read-out: Mino Cells Inhibition Activity IC50) | IC50 (MM.1S cells; 7 days, MTS, Table 1, read-out: MM.1S Cells Inhibition Activity IC50) | IC50 (MV-4-11 cells; [4]) | IC50 (Mino cells; [5]) | IC50 (MM.1S cells; [6])
O=C1CCC(N2C(=O)c3cccc(NCc4cnc(CN5CC(N6CCOCC6)C5)o4)c3C2=O)C(=O)N1 (stereo not drawn) [Example 80] | < 1000 nM | > 120 nM | > 150 nM | – | – | – | – | – | –
Cc1ccccc1-c1ncc(CNc2cccc3c2C(=O)N(C2CCC(=O)NC2=O)C3=O)o1 (stereo not drawn) [Example 21] | 1000 to 20000 nM | > 120 nM | < 15 nM | – | – | – | – | – | –
O=C1CCC(N2C(=O)c3cccc(NCc4cnc(C5CCN(C(=O)CC67CC8CC(CC(C8)C6)C7)CC5)o4)c3C2=O)C(=O)N1 (stereo not drawn) [Example 11] | < 1000 nM | < 60 nM | < 15 nM | – | – | – | – | – | –
O=C1CCC(N2C(=O)c3cccc(NCc4cnc(-c5ccc(F)cc5)o4)c3C2=O)C(=O)N1 (stereo not drawn) [Example 93, 2-(2,6-Dioxopiperidine-3-yl)-4-(((2-(4-Fluorophenyl)oxazol-5-yl)methyl)amino)isoindoline-1,3-dione] | – | – | – | < 1000 nM | < 60 nM | < 15 nM | – | – | –
O=C1CCC(N2C(=O)c3cccc(NCc4cnc(-c5cccc(Cl)c5)o4)c3C2=O)C(=O)N1 (stereo not drawn) [Example 63, 4-(((2-(3-Chlorophenyl)oxazol-5-yl)methyl)amino)-2-(2,6-Dioxopiperidin-3-yl)isoindolin-1,3-dione] | < 1000 nM | > 120 nM | 15 to 30 nM | – | – | – | – | – | –
O=C1CCC(N2C(=O)c3cccc(NCc4cnc(-c5ccccc5F)o4)c3C2=O)C(=O)N1 (stereo not drawn) [Example 71, 2-(2,6-Dioxopiperidin-3-yl)-4-(((2-(2-Fluorophenyl)oxazol-5-yl)methyl)amino)isoindolin-1,3-dione] | < 1000 nM | < 60 nM | < 15 nM | – | – | – | – | – | –
N#Cc1ccc(N2CCN(Cc3ncc(CNc4cccc5c4C(=O)N(C4CCC(=O)NC4=O)C5=O)o3)CC2)c(F)c1 (stereo not drawn) [Example 81] | 1000 to 20000 nM | > 120 nM | 30 to 150 nM | – | – | – | – | – | –
O=C1CCC(N2C(=O)c3cccc(NCc4cnc(-c5ccc(OC6CCOCC6)cc5)o4)c3C2=O)C(=O)N1 (stereo not drawn) [Example 53] | < 1000 nM | < 60 nM | < 15 nM | – | – | – | – | – | –
O=C1CCC(N2C(=O)c3cccc(NCc4cnc(-c5ccc(O[C@H]6CCOC6)cc5)o4)c3C2=O)C(=O)N1 (stereo partly drawn) [Example 48] | < 1000 nM | < 60 nM | < 15 nM | – | – | – | – | – | –
O=C1CCC(N2C(=O)c3cccc(NCc4cnc(-c5ccc(F)cc5)o4)c3C2=O)C(=O)N1 (stereo not drawn) [Example 26] | < 1000 nM | < 60 nM | < 15 nM | – | – | – | – | – | –
CC(C)(C)C(=O)OCN1C(=O)CCC(N2C(=O)c3cccc(NCc4cnc(-c5ccc(C(F)(F)F)cc5)s4)c3C2=O)C1=O (stereo not drawn) [Example 39] | < 1000 nM | 60 to 120 nM | 15 to 30 nM | – | – | – | – | – | –
O=C1CCC(N2C(=O)c3cccc(NCc4cnc(C5CCN(Cc6ccc(OC(F)(F)F)cc6)CC5)o4)c3C2=O)C(=O)N1 (stereo not drawn) [Example 14] | < 1000 nM | 60 to 120 nM | 15 to 30 nM | – | – | – | – | – | –
CC(C)(C)C(=O)N1CCC(c2ncc(CNc3cccc4c3C(=O)N(C3CCC(=O)NC3=O)C4=O)o2)CC1 (stereo not drawn) [Example 9] | < 1000 nM | > 120 nM | < 15 nM | – | – | – | 782 nM | 141 nM | 8.8 nM
O=C1CCC(N2C(=O)c3cccc(NCc4cnc(C5CCN(C(=O)c6ccc(OC(F)(F)F)cc6)CC5)o4)c3C2=O)C(=O)N1 (stereo not drawn) [Example 7] | 1000 to 20000 nM | > 120 nM | 15 to 30 nM | – | – | – | – | – | –
COc1ccc(-c2ncc(CNc3cccc4c3C(=O)N(C3CCC(=O)NC3=O)C4=O)o2)cc1 (stereo not drawn) [Example 16] | < 1000 nM | < 60 nM | < 15 nM | – | – | – | – | – | –
O=C1CCC(N2C(=O)c3cccc(NCc4cnc(-c5ccc(OC6COC6)cc5)o4)c3C2=O)C(=O)N1 (stereo not drawn) [Example 49] | < 1000 nM | < 60 nM | 15 to 30 nM | – | – | – | – | – | –
O=C1CCC(N2Cc3c(NCc4cnc(-c5ccc(OC(F)(F)F)cc5)o4)cccc3C2=O)C(=O)N1 (stereo not drawn) [Prior Art Disclosed Compound-1, reference compound] | – | – | – | – | – | – | > 20000 nM | > 4800 nM | > 20 nM
CC(C)(C)C(=O)OCN1C(=O)CCC(N2C(=O)c3cccc(NCc4cnc(C5CCN(C(=O)C(C)(C)C)CC5)o4)c3C2=O)C1=O (stereo not drawn) [Example 41] | 1000 to 20000 nM | > 120 nM | 15 to 30 nM | – | – | – | – | – | –
O=C1CCC(N2C(=O)c3cccc(NCc4cnc(-c5ccc(Cl)nc5)o4)c3C2=O)C(=O)N1 (stereo not drawn) [Example 44] | > 20000 nM | > 120 nM | 30 to 150 nM | – | – | – | – | – | –
CC(C)(C)C(=O)N1CCC(c2ncc(CNc3cccc4c3CN(C3CCC(=O)NC3=O)C4=O)o2)CC1 (stereo not drawn) [Example Ctrl-1, 3-(1-oxo-4-(((2-(1-pivaloylpiperidin-4-yl)oxazol-5-yl)methyl)amino)isoindolin-2-yl)piperidine-2,6-dione, reference compound] | – | – | – | – | – | – | 14400 nM | > 20000 nM | 420 nM
O=C1CCC(N2C(=O)c3cccc(NCc4cnc(-c5ccc(OC(F)(F)F)cc5)o4)c3C2=O)C(=O)N1 (stereo not drawn) [Example 15] | < 1000 nM | 60 to 120 nM | < 15 nM | – | – | – | 750 nM | 60.5 nM | 6.4 nM
O=C1CCC(N2C(=O)c3cccc(NCc4cnc(-c5cccc(Cl)c5Cl)o4)c3C2=O)C(=O)N1 (stereo not drawn) [Example 74, 4-(((2-(2,3-Dichlorophenyl)oxazol-5-yl)methyl)amino)-2-(2,6-Dioxopiperidin-3-yl)isoindolin-1,3-dione] | 1000 to 20000 nM | > 120 nM | < 15 nM | – | – | – | – | – | –
COc1ccc(-c2ncc(CNc3cccc4c3C(=O)N(C3CCC(=O)NC3=O)C4=O)s2)c(OC)c1 (stereo not drawn) [Example 36] | < 1000 nM | > 120 nM | 15 to 30 nM | – | – | – | – | – | –
O=C1CCC(N2C(=O)c3cccc(NCc4cnc(-c5ccc(Cl)cn5)s4)c3C2=O)C(=O)N1 (stereo not drawn) [Example 43] | < 1000 nM | > 120 nM | < 15 nM | – | – | – | – | – | –
O=C1CCC(N2C(=O)c3cccc(NCc4nnc(-c5ccccc5)o4)c3C2=O)C(=O)N1 (stereo not drawn) [Example 98, 2-(2,6-Dioxopiperidine-3-yl)-4-(((5-Phenyl-1,3,4-oxadiazol-2-yl)methyl)amino)isoindoline-1,3-dione] | 1000 to 20000 nM | > 120 nM | 15 to 30 nM | – | – | – | – | – | –
O=C1CCC(N2C(=O)c3cccc(NCc4cnc(-c5ccccc5Cl)o4)c3C2=O)C(=O)N1 (stereo not drawn) [Example 27] | < 1000 nM | 60 to 120 nM | < 15 nM | – | – | – | – | – | –
O=C1CCC(N2C(=O)c3cccc(NCc4cnc(-c5ccc(OCCO)cc5)o4)c3C2=O)C(=O)N1 (stereo not drawn) [Example 50] | < 1000 nM | < 60 nM | < 15 nM | – | – | – | – | – | –
O=C1CCC(N2C(=O)c3cccc(NCc4cnc([C@H]5CC[C@@H](Cc6ccc(F)cc6)CC5)o4)c3C2=O)C(=O)N1 (stereo partly drawn) [Example 105, 2-(2,6-Dioxopiperidine-3-yl)-4-(((2-((1S,4S)-4-(4-Fluorobenzyl)cyclohexyl)oxazol-5-yl)methyl)amino)isoindoline-1,3-dione] | 1000 to 20000 nM | > 120 nM | > 150 nM | – | – | – | – | – | –
